Several values for one entry are separate records, joined by “and”; a condition that tells them apart may be missing. Equal values may be shown once. Numbered stars: 1 amine (or outer) side, 2 acyl side, 3 side chain; on linkers, the order of the positions; unused ones are H or OH. Bridge positions count the residues as written; N and C are the ends. Square brackets hold non-standard residues; d marks the D form. Peptide text beside a SMILES is read from it. * marks the point of attachment. d1Nal = N[C@H](Cc1cccc2ccccc12)C(=O)O; Asu = N[C@@H](CCCCCC(=O)O)C(=O)O; X1 = O=C(C(N[*:1])S[*:3])[*:2]; Ahp = NCCCCCCC(=O)O; Bn = c1ccc(C*)cc1; Mpa = O=C(O)CCS
Experiments:
[1] = biological target: Somatostatin receptor type 5 (Homo sapiens, UniProt P35346)
Sequence of Somatostatin receptor type 5 (P35346 whole entry): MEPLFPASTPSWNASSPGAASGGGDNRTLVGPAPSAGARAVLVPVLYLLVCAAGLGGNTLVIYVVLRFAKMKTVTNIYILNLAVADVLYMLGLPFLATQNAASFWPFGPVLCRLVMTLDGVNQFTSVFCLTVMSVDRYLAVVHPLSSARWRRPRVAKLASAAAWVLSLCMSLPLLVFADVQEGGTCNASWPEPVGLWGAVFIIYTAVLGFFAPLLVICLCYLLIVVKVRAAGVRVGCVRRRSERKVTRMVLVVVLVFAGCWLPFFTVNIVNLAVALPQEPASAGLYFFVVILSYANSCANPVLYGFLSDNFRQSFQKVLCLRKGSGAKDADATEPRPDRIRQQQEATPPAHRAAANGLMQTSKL

[2] = biological target: Somatostatin receptor type 1 (Homo sapiens, UniProt P30872)
Sequence of Somatostatin receptor type 1 (P30872 whole entry): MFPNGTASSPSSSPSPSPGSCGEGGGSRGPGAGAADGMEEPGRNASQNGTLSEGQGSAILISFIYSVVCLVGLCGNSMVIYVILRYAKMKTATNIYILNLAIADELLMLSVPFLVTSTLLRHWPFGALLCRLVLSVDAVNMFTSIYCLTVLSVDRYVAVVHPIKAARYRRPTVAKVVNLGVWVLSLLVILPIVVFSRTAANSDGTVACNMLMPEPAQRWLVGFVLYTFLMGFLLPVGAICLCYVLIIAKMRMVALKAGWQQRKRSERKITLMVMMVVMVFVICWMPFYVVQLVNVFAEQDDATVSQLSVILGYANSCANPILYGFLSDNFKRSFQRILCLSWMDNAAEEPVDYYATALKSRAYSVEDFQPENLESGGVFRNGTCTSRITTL

[3] = biological target: Somatostatin receptor type 3 (Homo sapiens, UniProt P32745)
Sequence of Somatostatin receptor type 3 (P32745 whole entry): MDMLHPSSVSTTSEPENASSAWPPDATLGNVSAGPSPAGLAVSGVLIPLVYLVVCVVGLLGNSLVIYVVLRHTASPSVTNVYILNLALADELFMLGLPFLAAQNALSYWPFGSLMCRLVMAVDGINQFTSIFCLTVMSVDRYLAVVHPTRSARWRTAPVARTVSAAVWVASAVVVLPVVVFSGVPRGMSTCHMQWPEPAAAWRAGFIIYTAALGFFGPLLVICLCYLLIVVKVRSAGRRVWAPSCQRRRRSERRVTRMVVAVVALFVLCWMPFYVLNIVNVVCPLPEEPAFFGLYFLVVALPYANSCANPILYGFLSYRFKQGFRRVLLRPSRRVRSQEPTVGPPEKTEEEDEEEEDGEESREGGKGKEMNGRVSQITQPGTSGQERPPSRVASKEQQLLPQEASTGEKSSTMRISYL

[4] = biological target: Somatostatin receptor type 4 (Homo sapiens, UniProt P31391)
Sequence of Somatostatin receptor type 4 (P31391 whole entry): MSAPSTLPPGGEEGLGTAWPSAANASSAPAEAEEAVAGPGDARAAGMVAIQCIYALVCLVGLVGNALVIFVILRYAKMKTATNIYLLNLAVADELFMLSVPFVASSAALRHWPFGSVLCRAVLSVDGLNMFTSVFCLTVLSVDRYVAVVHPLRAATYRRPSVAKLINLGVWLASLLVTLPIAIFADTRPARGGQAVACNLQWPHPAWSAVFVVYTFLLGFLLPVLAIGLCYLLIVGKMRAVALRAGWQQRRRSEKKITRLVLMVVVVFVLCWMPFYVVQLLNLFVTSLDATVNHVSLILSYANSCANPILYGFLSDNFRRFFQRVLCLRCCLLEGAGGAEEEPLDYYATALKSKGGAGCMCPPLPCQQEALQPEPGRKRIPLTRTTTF

[5] = biological target: Somatostatin receptor type 2 (Homo sapiens, UniProt P30874)
Sequence of Somatostatin receptor type 2 (P30874 whole entry): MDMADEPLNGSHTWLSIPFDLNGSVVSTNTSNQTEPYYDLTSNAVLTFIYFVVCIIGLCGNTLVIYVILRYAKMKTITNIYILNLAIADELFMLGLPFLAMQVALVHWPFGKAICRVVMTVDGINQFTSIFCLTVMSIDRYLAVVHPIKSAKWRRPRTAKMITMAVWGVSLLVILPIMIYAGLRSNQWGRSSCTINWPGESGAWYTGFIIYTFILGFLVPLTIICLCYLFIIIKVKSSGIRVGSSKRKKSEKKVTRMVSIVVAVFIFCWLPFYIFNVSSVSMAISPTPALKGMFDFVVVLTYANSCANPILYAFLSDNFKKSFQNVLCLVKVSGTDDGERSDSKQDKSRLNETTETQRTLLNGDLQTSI

Compound	Ki [1]	Ki [2]	Ki [3]	Ki [4]	Ki [5]
C[C@@H](O)[C@@H]1NC(=O)[C@H](CCCCN)NC(=O)[C@@H](Cc2c[nH]c3ccccc23)NC(=O)[C@H](Cc2ccccc2)NC(=O)[C@@H]2CCCN2C(=O)[C@H](Cc2ccccc2)NC1=O (cyclo(PF[dW]KTF))	67.6 nM	4790 nM and 4170 nM	457 nM and 148 nM	2450 nM and 8710 nM	3.39 nM
CC(C)[C@@H]1NC(=O)[C@H](CCCCN)NC(=O)[C@@H](Cc2c[nH]c3ccccc23)NC(=O)[C@H](Cc2ccc(O)cc2)NC(=O)[C@@H](NC(=O)[C@H](N)Cc2ccc3ccccc3c2)CSSC[C@@H](C(=O)N[C@H](C(N)=O)[C@@H](C)O)NC1=O [3-(2-Naphtyl)-D-Ala-L-Cys(1)-L-Tyr-D-Trp-L-Lys-L-Val-L-Cys(1)-L-Thr-NH2]	–	219 nM	13.8 nM and 9.55 nM	–	0.54 nM and 0.55 nM
C[C@@H](O)[C@@H]1NC(=O)[C@H](Cc2ccc(O)cc2)NC(=O)[C@H]([C@@H](C)O)NC(=O)[C@H](CCCCN)NC(=O)[C@H](Cc2c[nH]c3ccccc23)NC(=O)[C@H](Cc2ccccc2)NC(=O)[C@H](Cc2ccccc2)NC(=O)[C@H](CC(N)=O)NC(=O)[C@H](CCCCN)NC(=O)CCCCC[C@@H](C(=O)O)NC(=O)[C@H](CO)NC1=O [CGP-23996] (KNFFWKTYTS[Asu]-OH; lactam N-11)	214 nM	4.68 nM and 4.9 nM	1.51 nM and 0.52 nM	1.7 nM and 2.14 nM	1.15 nM
C[C@@H](O)[C@@H]1NC(=O)[C@H](CCCCN)NC(=O)[C@H](Cc2c[nH]c3ccccc23)NC(=O)[C@H](Cc2ccccc2)NC(=O)[C@H](Cc2ccccc2)NC(=O)[C@H](CC(N)=O)NC(=O)[C@H](CCCCN)NC(=O)[C@@H](NC(=O)[C@@H]2CCCN2)CSSC[C@@H](C(=O)N[C@@H](CCCCN)C(=O)O)NC(=O)[C@H](CO)NC(=O)[C@H](CO)NC(=O)[C@H](Cc2ccccc2)NC1=O [Cortistatin(1-14)] (H-PCKNFFWKTFSSCK-OH; disulfide 2-13)	3.98 nM	–	0.87 nM and 0.74 nM	1.74 nM and 1.78 nM	2.88 nM
CSCC[C@H](NC(=O)[C@H](CCCN=C(N)N)NC(=O)[C@@H](N)CC(=O)O)C(=O)N1CCC[C@H]1C(=O)N[C@H]1CSSC[C@@H](C(=O)N[C@@H](CCCCN)C(=O)O)NC(=O)[C@H](CO)NC(=O)[C@H](CO)NC(=O)[C@H](Cc2ccccc2)NC(=O)[C@H]([C@@H](C)O)NC(=O)[C@H](CCCCN)NC(=O)[C@H](Cc2c[nH]c3ccccc23)NC(=O)[C@H](Cc2ccccc2)NC(=O)[C@H](Cc2ccccc2)NC(=O)[C@H](CC(N)=O)NC(=O)[C@H](CCCN=C(N)N)NC1=O [Cortistatin]	0.29 nM and 0.43 nM	0.25 nM	0.37 nM and 0.3 nM	0.58 nM and 0.28 nM	0.85 nM and 0.51 nM
C[C@@H](O)[C@@H]1NC(=O)[C@H](CCCCN)NC(=O)[C@@H](Cc2c[nH]c3ccccc23)NC(=O)[C@H](Cc2c[nH]c3ccccc23)NC(=O)[C@H](Cc2ccccc2)NC(=O)CCCCCCNC(=O)[C@H](Cc2ccccc2)NC1=O [L-362855] (cyclo([Ahp]FW[dW]KTF))	–	562 nM and 501 nM	24 nM and 5.62 nM	49 nM and 174 nM	–
C[C@@H](OCc1ccccc1)[C@@H]1NC(=O)[C@H](CCCCN)NC(=O)[C@@H](Cc2c[nH]c3ccccc23)NC(=O)[C@H](Cc2ccccc2)NC(=O)CCCCCCNC1=O [c[Aha-Phe-D-Trp-Lys-Thr(Bzl)]] (cyclo([Ahp]F[dW]KT(Bn)))	955 nM	95.5 nM and 158 nM	589 nM and 83.2 nM	331 nM and 851 nM	1820 nM
CC(C)[C@@H]1NC(=O)[C@H](CCCCN)NC(=O)[C@@H](Cc2c[nH]c3ccccc23)NC(=O)[C@H](Cc2ccc(O)cc2)NC(=O)[C@H](C)N(C)C(=O)[C@H](Cc2ccccc2)NC1=O [seglitide]	0.72 nM	> 10000 nM	–	–	–

Results, then the compound that gave them:

Ki [1]	Ki [2]	Ki [3]	Ki [4]	Ki [5]	Compound
209 nM	245 nM and 347 nM	126 nM and 83.2 nM	67.6 nM and 339 nM	589 nM	CC(C)[C@H](NC(=O)[C@H](CCCCN)NC(=O)[C@@H](Cc1c[nH]c2ccccc12)NC(=O)[C@H](Cc1ccc(O)cc1)NC(=O)[C@H](Cc1ccccc1)NC(=O)[C@H](N)Cc1ccccc1)C(=O)N[C@@H](Cc1ccccc1)C(=O)N[C@H](Cc1cccc2ccccc12)C(N)=O [BIM 23056] (H-[dF]FY[dW]KVF[d1Nal]-NH2)
–	83.2 nM and 110 nM	42.7 nM and 12.3 nM	56.2 nM and 275 nM	0.45 nM and 0.25 nM	CC(C)[C@@H]1NC(=O)[C@H](CCCCN)NC(=O)[C@@H](Cc2c[nH]c3ccccc23)NC(=O)[C@H](Cc2ccc(O)cc2)NC(=O)[C@@H](NC(=O)[C@H](N)Cc2ccccc2)CSSC[C@@H](C(=O)N[C@@H](Cc2c[nH]c3ccccc23)C(N)=O)NC1=O [CAS_71306] (H-[dF]CY[dW]KVCW-NH2; disulfide 2-7)
2750 nM	8710 nM and > 10000 nM	67.6 nM and 14.1 nM	1050 nM and 2750 nM	21.9 nM	CC(C)[C@@H]1NC(=O)[C@H](CCCCN)NC(=O)[C@@H](Cc2c[nH]c3ccccc23)NC(=O)[C@H](Cc2ccc(O)cc2)NC(=O)CCSSC(C(=O)N[C@@H](Cc2ccccc2)C(N)=O)NC1=O (stereo not given in full) [CAS_117580-24-2] ([Mpa]Y[dW]KV[X1]F-NH2; disulfide 1-6)
35.5 nM	4.27 nM and 2.4 nM	–	2.34 nM and 6.31 nM	3.16 nM	C[C@@H](O)[C@H](NC(=O)[C@H](Cc1ccccc1)NC(=O)[C@@H](NC(=O)[C@H](CCCCN)NC(=O)[C@@H](Cc1c[nH]c2ccccc12)NC(=O)[C@H](Cc1ccccc1)NC(=O)[C@H](Cc1ccccc1)NC(=O)[C@H](N)Cc1ccccc1)[C@@H](C)O)C(N)=O [CAS_133073-82-2] (H-[dF]FF[dW]KTFT-NH2)

Source: BindingDB's records for doi:10.1007/pl00005197 (Novartis Pharma, 1998)
